Several values for one entry are separate records, joined by “and”; a condition that tells them apart may be missing. Identical values can stand only once.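 Cells were grown in 96-well plates and exposed to each compound for 48 hours at five concentrations; endpoints were interpolated linearly between bracketing concentrations, or set to the highest concentration if not reached. GI50 marks 50% less growth. The concentration for full growth arrest is given as TGI.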
Experiments:
Assay in all cases: inhibition of tumour cell growth, NCI panel, 48 h
UACC-257 melanoma = tested on: UACC-257 melanoma
KM12 colon = tested on: KM12 colon
SF-268 CNS = tested on: SF-268 CNS
U251 CNS = tested on: U251 CNS
SW-620 colon = tested on: SW-620 colon
HCT-116 colon = tested on: HCT-116 colon
MDA-MB-435 = tested on: MDA-MB-435
HOP-62 NSCLC = tested on: HOP-62 NSCLC
RXF 393 renal = tested on: RXF 393 renal
LOX IMVI melanoma = tested on: LOX IMVI melanoma

Row | SMILES | GI50 (UACC-257 melanoma) | TGI (UACC-257 melanoma) | GI50 (KM12 colon) | TGI (KM12 colon) | TGI (SF-268 CNS) | TGI (U251 CNS) | TGI (SW-620 colon) | GI50 (HCT-116 colon) | TGI (HCT-116 colon) | GI50 (MDA-MB-435) | TGI (MDA-MB-435) | TGI (HOP-62 NSCLC) | TGI (RXF 393 renal) | TGI (LOX IMVI melanoma) | GI50 (SF-268 CNS) | GI50 (U251 CNS) | GI50 (SW-620 colon) | GI50 (HOP-62 NSCLC) | GI50 (RXF 393 renal) | GI50 (LOX IMVI melanoma)
1 | O=C1c2c(O)ccc(O)c2C(=O)c2c(NCCNCCO)ccc(NCCNCCO)c21 | 820 nM | 4.61 µM and 6.14 µM and 7.32 µM | 0.459 µM | 2.58 µM and 2.59 µM and 3.9 µM | 0.32 µM and 0.696 µM and 0.845 µM | 0.151 µM and 0.499 µM and 0.376 µM | 1.91 µM and 1.62 µM and 1.77 µM | 45.1 nM | 0.327 µM and 1.23 µM and 0.858 µM | 297 nM | 1.65 µM and 1.07 µM and 1.82 µM | 0.122 µM and 0.0851 µM and 0.204 µM | 0.307 µM and 0.368 µM and 0.493 µM | 0.191 µM and 0.571 µM and 0.706 µM | – | – | – | – | – | –
2 | COc1ccc(C2NC(=S)NC3=C2COc2ccc(F)cc23)cc1OC (centres undefined) | 14200 nM | 45.4 µM | 25.9 µM | > 100 µM | > 100 µM | 29.5 µM | > 100 µM | 16600 nM | 57.1 µM | 12300 nM | 38.5 µM | > 100 µM | 60.8 µM | 27.6 µM | 19 µM | 12700 nM | 24.5 µM | 26.8 µM | 18900 nM | 13500 nM
3 | O=C(Nc1cccc(Cl)c1)c1cc(Cl)ccc1O | 410 nM | 2.87 µM | 2.39 µM | 6.87 µM | > 40.3 µM | > 38.2 µM | 9.85 µM | 562 nM | 2.12 µM | 661 nM | 5.99 µM | 4.03 µM | 4.27 µM | 2.26 µM | 1.21 µM | 841 nM | 1.36 µM | 1.33 µM | 849 nM | 543 nM
4 | COC(=O)C1=C(C(=O)OC)C(C(=O)OC)C(C(=O)OC)C(C(=O)OC)(C(=O)OC)C(C(=O)OC)=C1C(=O)OC (centres undefined) | – | 27 µM | – | 31.3 µM | 42.3 µM | 31 µM | 16.8 µM | – | 19.6 µM | – | 37.5 µM | 58.1 µM | 16.7 µM | 28.2 µM | – | – | – | – | – | –
5 | CCOC(=O)/N=c1\ssc(Cl)c1Cl | 15300 nM | 30.7 µM | 16.7 µM | 35.9 µM | 41.6 µM | 13.8 µM | 14.7 µM | 3350 nM | > 100 µM | 15200 nM | 30.8 µM | > 100 µM | 10.6 µM | 3.99 µM | 17.4 µM | 3340 nM | 0.599 µM | 43.7 µM | 3010 nM | 1900 nM
6 | CCOc1cccc(/C=N/NC(=O)Cc2ccc(Nc3ccnc(C(F)(F)F)c3)cc2)c1O | 6840 nM | > 100 µM | 3.73 µM | 84.3 µM | 32.4 µM | > 100 µM | 18 µM | 1200 nM | 19.3 µM | 3770 nM | > 100 µM | 30.8 µM | 40 µM | > 100 µM | 1.27 µM | 1580 nM | 3.06 µM | 2.28 µM | 3200 nM | 1490 nM
7 | Cc1nc2cc(Nc3nc(Nc4ccc(F)cc4)nc(-c4ccc(Cl)cc4)n3)ccc2n1Cc1ccccc1 | 8910 nM | > 100 µM | 4.32 µM | > 100 µM | 97.3 µM | > 100 µM | > 100 µM | 5040 nM | > 100 µM | 3600 nM | > 100 µM | 27.3 µM | 38.5 µM | > 100 µM | 10.1 µM | 12500 nM | 7.55 µM | 7.36 µM | 4210 nM | 12600 nM
8 | NC(=O)c1c(NC(=O)c2cccc(C(F)(F)F)c2)sc2c1CCC(=O)C2 | 2170 nM | 6.38 µM | 0.394 µM | 2.01 µM | > 100 µM | 16.6 µM | 1.62 µM | 249 nM | > 32.2 µM | 622 nM | 7.68 µM | > 91.5 µM | 2.92 µM | 2.8 µM | 0.429 µM | 307 nM | 0.234 µM | 3.06 µM | 352 nM | 356 nM
9 | COc1ccc(-c2cn(-c3cc(OC)c(OC)c(OC)c3)c(=O)n2-c2ccccc2)cc1 | > 100000 nM | > 100 µM | > 100 µM | > 100 µM | > 100 µM | > 100 µM | > 100 µM | > 100000 nM | > 100 µM | > 100000 nM | > 100 µM | > 100 µM | > 100 µM | > 100 µM | > 100 µM | > 100000 nM | > 100 µM | 66.2 µM | 45400 nM | > 100000 nM
10 | C=C1C(=O)C23CC1CCC2C12CO[C@@]3(O)[C@@H](O)C1C(C)(C)C=CC2=O (some centres undefined) | 2490 nM | 1.33 µM and 7.8 µM | – | 29.5 µM | 6.77 µM and 11 µM | 5.15 µM and 33.3 µM | 10.2 µM | 2900 nM | 1.01 µM and 9.03 µM | – | 11.1 µM | 14.4 µM and 67.2 µM | 1.34 µM | 11.5 µM | 3.11 µM | 16700 nM | – | 25.2 µM | – | –
11 | COC12C=C/C(=C(/C(=O)OCc3csc(SC)n3)C(=O)CCCCCCCCC3(OC)C=C/C(=C(/C(=O)OCc4cnc(SC)s4)C(=O)CCCCCCCC1)O3)O2 (centres undefined) | 6010 nM | > 100 µM | 3.1 µM | > 100 µM | > 100 µM | 43.6 µM | > 100 µM | 439 nM | 10.9 µM | 1680 nM | 5.32 µM | 70.6 µM | 3.52 µM | 3.53 µM | 5.75 µM | 3980 nM | 3.66 µM | 4.48 µM | 1750 nM | 1200 nM
12 | C/C(N=NC(=S)N1CCCCCC1)=C1\C=CC=CN1O | – | 10.9 µM | – | > 100 µM | > 100 µM | > 100 µM | > 100 µM | – | > 100 µM | – | > 100 µM | > 20.5 µM | 79.5 µM | > 56.3 µM | – | – | – | – | – | –
13 | CC(C)c1ccc2c(c1)c(SC(C)(C)C)c(CC(C)(C)C(=O)O)n2Cc1ccc(Cl)cc1 | 11000 nM | 24.7 µM | 10.2 µM | 26.3 µM | 23.5 µM | 19.4 µM | 29.1 µM | 9100 nM | 25.6 µM | 10200 nM | 26.1 µM | 28.9 µM | 12.4 µM | 24.7 µM | 8.79 µM | 6800 nM | 12.4 µM | 12.4 µM | 2870 nM | 10900 nM
14 | CC(=O)Nc1ccc2c(c1)CN1C(=O)c3ccccc3C1=N2 | > 100000 nM | > 100 µM | > 100 µM | > 100 µM | > 100 µM | > 100 µM | > 100 µM | > 100000 nM | > 100 µM | > 100000 nM | > 100 µM | > 100 µM | > 100 µM | > 100 µM | > 100 µM | > 100000 nM | > 100 µM | > 100 µM | > 100000 nM | > 100000 nM
15 | N#Cc1c(-c2ccc(Cl)cc2)csc1NC(=O)Nc1cccc(C(F)(F)F)c1 | 2530 nM | 6.74 µM | 2.64 µM | 9.9 µM | 14.7 µM | 5.46 µM | 13.9 µM | 2330 nM | 8.44 µM | 2730 nM | 10.3 µM | 8.04 µM | 5.96 µM | 9.48 µM | 3.28 µM | 2090 nM | 3.33 µM | 2.33 µM | 2330 nM | 2640 nM
16 | COc1ccc2c(c1)c(-c1cc(-c3cn(C)c4ccc(OC)cc34)[nH]n1)cn2C | > 100000 nM | > 100 µM | > 100 µM | > 100 µM | > 100 µM | > 100 µM | > 100 µM | > 100000 nM | > 100 µM | > 100000 nM | > 100 µM | > 100 µM | > 100 µM | > 100 µM | > 100 µM | > 100000 nM | > 100 µM | > 100 µM | > 100000 nM | > 100000 nM
17 | CCCCCCCCCCCCNC(=O)[C@H]1CSC(c2ccsc2)N1 (some centres undefined) | 946 nM | 1.7 µM | 0.868 µM | 1.64 µM | 1.45 µM | 1.61 µM | 1.85 µM | 908 nM | 1.71 µM | 680 nM | 1.35 µM | 1.62 µM | 1.69 µM | 1.64 µM | 0.613 µM | 875 nM | 0.969 µM | 0.873 µM | 960 nM | 824 nM
18 | Cc1ccc(-c2cc(C(Cl)Cl)on2)cc1 | 67700 nM | > 100 µM | 36.6 µM | > 100 µM | > 100 µM | > 100 µM | > 100 µM | 36100 nM | > 100 µM | 62900 nM | > 100 µM | > 100 µM | > 100 µM | > 100 µM | > 100 µM | 55100 nM | 67.5 µM | 95.5 µM | > 100000 nM | 41100 nM
19 | COc1ccc2nc3cc(Cl)ccc3c(Nc3ccc(O)c(CN4CCCC4)c3)c2c1 | 2150 nM | 3.83 µM | 3.13 µM | > 100 µM | > 100 µM | 4.44 µM | 6.19 µM | 1410 nM | 2.92 µM | 1760 nM | 3.52 µM | 5.34 µM | 3.17 µM | 3.47 µM | 3.79 µM | 2150 nM | 1.94 µM | 2.14 µM | 1700 nM | 1730 nM
20 | CC(=O)c1c(Nc2ccc(F)c(F)c2F)[nH]c2c(F)cc(F)cc2c1=O | 338 nM | 10 µM | 0.342 µM | 5.57 µM | 43.1 µM | 20.1 µM | 18.7 µM | 291 nM | 5.57 µM | 365 nM | 7.26 µM | 8.18 µM | 2.41 µM | 11.3 µM | 0.341 µM | 343 nM | 0.346 µM | 0.335 µM | 300 nM | 333 nM
21 | Oc1cccc(-c2nc(N3CCOCC3)c3oc4ncccc4c3n2)c1 | 593 nM and 421 nM | 3.39 µM and 3.79 µM | 0.286 µM and 0.297 µM | > 100 µM | > 100 µM and 19.9 µM | > 44.5 µM and 10.9 µM | > 100 µM | 530 nM and 426 nM | > 100 µM | 122 nM and 67.5 nM | 0.847 µM and 0.784 µM | 3.7 µM and 5.53 µM | 0.361 µM and 0.55 µM | 2.33 µM and 3.02 µM | 0.196 µM and 0.181 µM | 346 nM and 384 nM | 0.344 µM and 0.353 µM | 0.234 µM and 0.227 µM | 79.6 nM and 116 nM | 158 nM and 151 nM

Reference: PubChem BioAssay (NCI)
